Experimental data reported in patent publication US20110154529A1, “INDUCED CHROMOSOME DOUBLING IN PLANTS” (DOW AGROSCIENCES LLC, priority 2009, published 2011).
Where two headings read alike, the source gives them in different places.

How the values were obtained:
[1] = test system: germinated haploid maize seedlings in soil; assay: Chromosome doubling by foliar spray treatment at V1-V3 stage; format: in vivo
Procedure: Haploid maize seeds were planted in Sun Gro MetroMix® 306 planting mixture, which typically has a pH of 6.0 to 6.8 and an organic matter content of about 30 percent, in 72-well, plastic propagation flats (Dillen Products; Middlefield Ohio). When required to ensure good germination and healthy plants, a fungicide treatment and/or other chemical or physical treatment was applied. The plants were grown in a greenhouse with an approximate 15 hour photoperiod which was maintained at about 23-29° C. during the day and 22-28° C. during the night until they reached the V1-V3 growth stage. Nutrients and water were added on a regular basis and supplemental lighting was provided with overhead metal halide 1000-Watt lamps as necessary.
A weighed amount of compound 1, determined by the rate to be tested, was dissolved in 1.2 mL of dimethyl sulfoxide (DMSO) to obtain concentrated stock solutions. […] The concentrated stock solutions obtained were diluted with 10.8 mL of an aqueous mixture containing 1.25% v/v (volume/volume) Agri-dex Crop Oil Concentrate. Compound requirements are based upon a 12 mL application volume at a rate of 187 L/ha. Formulated compounds were applied to the plant material with an overhead Mandel track sprayer equipped with a 8002E nozzle calibrated to deliver 187 L/ha over an application area of 0.503 square meters at a spray height of 18 inches (43 cm) above the average plant canopy height. Control plants were sprayed in the same manner with the solvent blank.
The treated plants and control plants were placed in a greenhouse as described above and watered by sub-irrigation to prevent wash-off of the test compounds. Approximately 14 days after treatment, the treated plants were transplanted to individual pots containing Sun Gro MetroMix® 306. Plants that produced tassels and silk were then self-pollinated to obtain dihaploid seed.
Table 3 illustrates the results of doubling rate after spray treatment with the chemicals of interest. […] The spray treated plant tassels and silks were synchronized well and the plants shed more pollen.

[2] = test system: haploid germinated maize seedlings
Source text: An exemplary cycloalkene, 1,2,3-Trimethoxy-4-((1S,6R)-6-nitro-cyclohex-3-enyl)-benzene, designated as compound 1 was used to determine double haploid efficiency, doubling rate by a coleoptile tip cutting, seedling soaking method. […] Data provided in Tables 1, 2 and 3 were generated using haploid seeds obtained through cross pollination of a maize line of interest with an inducer maize line.
The resulting maize seeds were sorted based on marker gene color.
Coleoptile tips in maize seedlings were cut and the seedlings were soaked in various chromosome doubling agents as shown in Table 1. Haploid maize seeds were germinated and the coleoptile tips were excised (1-2 mm). Seedlings that survived were transplanted and grown until tassels and silk formed. Plants that produced tassels and silk were self-pollinated. Seeds produced form the self-pollination were visually assessed for the marker to identify them as double haploid (dihaploid).

rat = conditions: cited from earlier work
haploid maize seedlings = assay: Chromosome doubling by seedling soaking, plants transplanted into the field; format: in vivo
Procedure: The procedure listed in example 1 was utilized to treat maize seedlings that were subsequently transplanted into the field. Seedlings that survived the transplanting were grown to maturity. Plants that produced tassels and silk were self-pollinated. […] For the cycloalkene treatment, 25 μM and 100 μM concentrations of compound 1 was used.

rabbit = assay: Eye irritation; format: in vivo; conditions: dose of about 100 mg/animal
rats = assay: Dermal toxicity on rats; format: in vivo, rat; conditions: rats at 200 mg/kg
[3] = Acute mammalian toxicity LD50 (rat); conditions: in vivo
[4] = seedling soak, rate 5 μM, TP = transplanted
[5] = seedling soak, rate 25 μM, TP = transplanted
[6] = seedling soak, rate 125 μM, TP = transplanted
[7] = seedling soak, rate cell empty in table, colchicine at 0.06% w/v

CC(C)OC(=O)Nc1cccc(Cl)c1 [Chlorpropham, chlorpropham]
# plants dead after treatment ([1]; spray, rate 70 g ai/ha): 0
# plants w/ pollen and silk ([1]; spray, rate 70 g ai/ha): 9
% DR (doubling rate) ([1]; spray, rate 70 g ai/ha): 40.9%
# plants dead after treatment ([1]; spray, rate 280 g ai/ha): 1
# plants w/ pollen and silk ([1]; spray, rate 280 g ai/ha): 18
% DR (doubling rate) ([1]; spray, rate 280 g ai/ha): 58.1%
% DR (doubling rate: No. plants with pollen and silk/No. of plants left * 100) ([2]; seedling soak, rate 5 μM): 45.5%
No. plants alive ([2]; seedling soak, rate 5 μM): 16
No. plants dead ([2]; seedling soak, rate 5 μM): 48
No. plants with pollen & silks ([2]; seedling soak, rate 5 μM): 5
No. plants dead after TP [2, 4]: 0
No. plants alive ([2]; seedling soak, rate 25 μM): 1
No. plants dead ([2]; seedling soak, rate 25 μM): 63
No. plants dead after TP [2, 5]: 0
No. plants alive ([2]; seedling soak, rate 125 μM): 0
No. plants dead ([2]; seedling soak, rate 125 μM): 64
No. plants dead after TP [2, 6]: 0

COc1cc2c(c(OC)c1OC)-c1ccc(OC)c(=O)cc1[C@@H](NC(C)=O)CC2 [Colchicine, colchicine]
oral LD50 (rat) (rat): 5.89 mg/kg
% haploid maize plants pollinated (doubling rate) (haploid maize seedlings; 0.06% colchicine): 55.68%
plants that had doubled haploid ears (haploid maize seedlings; 0.06% w/v colchicine, of about 49 haploid plants pollinated): about 38
mortality rate ([2]; seedling soak, colchicine treatment at 0.06% w/v): 41.5%
% DR (doubling rate: No. plants with pollen and silk/No. of plants left * 100) [2, 7]: 53.3%
No. plants alive [2, 7]: 38
No. plants dead [2, 7]: 27
No. plants dead after TP [2, 7]: 0
No. plants with pollen & silks [2, 7]: 16

COc1ccc([C@@H]2CC=CC[C@H]2[N+](=O)[O-])c(OC)c1OC [Compound 1, 1,2,3-Trimethoxy-4-((1S,6R)-6-nitro-cyclohex-3-enyl)-benzene]
Eye irritation: time to resolution of corneal and iridal effects (rabbit): ≤ 48 h
Eye irritation: animals with corneal and iridal effects (rabbit; at 24 hours): 1 of 3 animals showed corneal and iridal effects
dermal toxicity (rats): No dermal toxicity was observed
LD50 [3]: ≥ 500 mg/kg
% DH pollination success (haploid maize seedlings; 25 μM): 90%
% haploid maize plants pollinated (doubling rate) (haploid maize seedlings; 25 μM): 67.79%
plants that had doubled haploid ears (haploid maize seedlings; 25 μM, out of 40 pollinated maize haploid plants): 36
% DH pollination success (haploid maize seedlings; 100 μM): 62.5%
% haploid maize plants pollinated (doubling rate) (haploid maize seedlings; 100 μM): 51.06%
plants that had doubled haploid ears (haploid maize seedlings; 100 μM, out of 24 pollinated haploid maize plants): 15
# plants dead after treatment ([1]; maize, in vivo): 0
# plants w/ pollen and silk ([1]; spray, rate 70 g ai/ha): 6
% DR (doubling rate) ([1]; spray, rate 70 g ai/ha): 31.2%
# plants w/ pollen and silk ([1]; spray, rate 280 g ai/ha): 12
% DR (doubling rate) ([1]; spray, rate 280 g ai/ha): 46.2%
No. plants alive ([2]; maize, in vivo, 5 μM): 56
No. plants dead ([2]; maize, in vivo, 5 μM): 10
No. plants dead after TP ([2]; maize, in vivo, 5 μM): 2
No. plants alive ([2]; maize, in vivo, 25 μM): 46
No. plants dead ([2]; maize, in vivo, 25 μM): 20
No. plants dead after TP ([2]; maize, in vivo, 25 μM): 2
No. plants alive ([2]; maize, in vivo, 125 μM): 29
No. plants dead ([2]; maize, in vivo, 125 μM): 34
No. plants dead after TP ([2]; maize, in vivo, 125 μM): 2
mortality rate ([2]; seedling soak, 5 μM (10/66*100)): 15.1%
mortality rate ([2]; seedling soak, 25 μM): 30.3%
% DR (doubling rate: No. plants with pollen and silk/No. of plants left * 100) ([2]; seedling soak, rate 5 μM): 53.3%
No. plants with pollen & silks ([2]; seedling soak, rate 5 μM): 24
% DR (doubling rate: No. plants with pollen and silk/No. of plants left * 100) ([2]; seedling soak, rate 5 μM, listed as compound 1): about 53%
% DR (doubling rate: No. plants with pollen and silk/No. of plants left * 100) ([2]; seedling soak, rate 25 μM): 62.5%
No. plants with pollen & silks ([2]; seedling soak, rate 25 μM): 20
% DR (doubling rate: No. plants with pollen and silk/No. of plants left * 100) ([2]; seedling soak, rate 125 μM): 76.5%
No. plants with pollen & silks ([2]; seedling soak, rate 125 μM): 13

C#CC(C)(C)NC(=O)c1cc(Cl)cc(Cl)c1 [Pronamide, pronamide]
# plants dead after treatment ([1]; spray, rate 35 g ai/ha): 0
# plants w/ pollen and silk ([1]; spray, rate 35 g ai/ha): 5
% DR (doubling rate) ([1]; spray, rate 35 g ai/ha): 27.8%
# plants dead after treatment ([1]; spray, rate 140 g ai/ha): 0
# plants w/ pollen and silk ([1]; spray, rate 140 g ai/ha): 3
% DR (doubling rate) ([1]; spray, rate 140 g ai/ha): 16.7%
% DR (doubling rate: No. plants with pollen and silk/No. of plants left * 100) ([2]; seedling soak, rate 5 μM): 44.5%
No. plants alive ([2]; seedling soak, rate 5 μM): 41
No. plants dead ([2]; seedling soak, rate 5 μM): 23
No. plants with pollen & silks ([2]; seedling soak, rate 5 μM): 12
No. plants dead after TP [2, 4]: 3
No. plants alive ([2]; seedling soak, rate 25 μM): 13
No. plants dead ([2]; seedling soak, rate 25 μM): 51
No. plants with pollen & silks ([2]; seedling soak, rate 25 μM): 2
No. plants dead after TP [2, 5]: 1
No. plants alive ([2]; seedling soak, rate 125 μM): 2
No. plants dead ([2]; seedling soak, rate 125 μM): 62
No. plants dead after TP [2, 6]: 0
